According to US9346809B2 (LEO PHARMA A/S, priority 2009, dated 2016):
pEC50: −log10 of the molar value. Read-outs that look alike come from different tables or passages of the source.

How the values were obtained:
Format in all cases: biochemical
[1] = target: T1, JAK2 (catalytic domain, His-tag) (Homo sapiens, UniProt O60674); assay: JAK kinase assay (HTRF, phosphorylation of TK substrate-biotin), JAK2; settings: HTRF assay, ATP at Km (4 μM)
T1 construct: All four purified enzymes contain only the catalytic domain; His (N); purchased Carna Biosciences, Inc; host or cells: baculovirus expression system
T1 sequence (O60674 849-1124 limits assumed): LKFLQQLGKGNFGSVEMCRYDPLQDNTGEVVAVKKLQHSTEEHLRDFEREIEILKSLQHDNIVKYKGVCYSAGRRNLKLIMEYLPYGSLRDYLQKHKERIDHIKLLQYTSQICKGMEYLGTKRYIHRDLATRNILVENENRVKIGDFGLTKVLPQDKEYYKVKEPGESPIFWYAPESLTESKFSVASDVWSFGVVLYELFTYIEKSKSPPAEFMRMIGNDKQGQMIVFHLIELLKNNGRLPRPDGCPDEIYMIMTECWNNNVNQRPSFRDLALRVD
Method: (§1) Human baculovirus-expressed JAK1, 2, 3 and TYK2 were purchased from Carna Biosciences, Inc. All four purified enzymes contain only the catalytic domain. JAK1 (aa 850-1154) and TYK2 (aa 871-1187) are expressed with an N-terminally fused GST-tag, and JAK2 and JAK3 with an N-terminally fused His-tag.
(§2) Inhibition of phosphorylation of a synthetic peptide was measured in an HTRF-based assay using the TK substrate-Biotin from the Cisbio HTRFKinEASE TK kit. First, 2 μl of TK solution (TK substrate-biotin in kinase buffer [1× enzymatic buffer from HTRFKinEASE TK kit, 1 mM DTT]) is added to a plate containing 1 μl prediluted compound (final assay concentration DMSO: 0.75%). Then, 5 μl kinase-ATP mix (prepared in kinase buffer) is added to the wells and the plates are incubated at RT for 20-30 min. For all four kinases a concentration of ATP that corresponded to the Km for ATP was used. The final concentrations of buffers, substrate, kinase and ATP were: JAK1: 50 mM Hepes buffer pH 7.0, 0.01% BSA, 10 mM MgCl2, 1 mM DTT, 7 μM ATP, 50 nM SEB, 1 μM TK Substrate-Biotin and 5 ng JAK1; JAK2: 50 mM Hepes buffer pH 7.0, 0.01% BSA, 5 mM MgCl2, 1 mM DTT, 4 μM ATP, 1 μM TK Substrate-Biotin and 0.1 ng JAK2; JAK3: 50 mM Hepes buffer pH 7.0, 0.01% BSA, 5 mM MgCl2, 1 mM DTT, 2 μM ATP, 1 μM TK Substrate-Biotin and 0.3 ng JAK3; TYK2: 50 mM Hepes buffer pH 7.0, 0.01% BSA, 5 mM MgCl2, 1 mM DTT, 13 μM ATP, 50 nM SEB, 1 μM TK Substrate-Biotin and 0.8 ng TYK2. Thereafter, the kinase reaction is stopped by adding 4 μl detection mix (final concentrations: 50 mM Hepes buffer pH 7.0, 0.01% BSA, 0.8 M KF, 20 mM EDTA, 42 nM Streptavidin-XL665 and 1:400 STK Ab Cryptate) and the plates are incubated overnight in the dark. The HTRF signal is read using an Envision plate reader.
(§3) In Table 1 selected JAK kinase inhibitory activities are listed with the following indicators: I: EC50<100 nM, II: 100 nM≦EC50≦500 nM and III: EC50>500 nM

[2] = target: T2, TYK2 (aa 871-1187, catalytic domain, GST-tag) (Homo sapiens, UniProt P29597); assay: JAK kinase assay (HTRF, phosphorylation of TK substrate-biotin), TYK2; settings: HTRF assay, ATP at Km (13 μM)
T2 construct: JAK1 (aa 850-1154) and TYK2 (aa 871-1187) are expressed with an N-terminally fused GST-tag; GST (N); purchased Carna Biosciences, Inc; host or cells: baculovirus expression system
T2 sequence (P29597 871-1187): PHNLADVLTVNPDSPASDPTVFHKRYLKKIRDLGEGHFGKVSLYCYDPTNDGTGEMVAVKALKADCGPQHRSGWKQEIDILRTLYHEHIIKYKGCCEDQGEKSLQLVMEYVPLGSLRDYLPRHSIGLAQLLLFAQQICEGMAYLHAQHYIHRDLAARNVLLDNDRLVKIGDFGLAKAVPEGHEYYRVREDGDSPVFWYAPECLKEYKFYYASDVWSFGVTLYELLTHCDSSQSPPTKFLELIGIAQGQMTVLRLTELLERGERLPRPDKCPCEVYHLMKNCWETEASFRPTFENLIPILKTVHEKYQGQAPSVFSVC
Method: as §1, §2, §3

[3] = target: T3, JAK1 (aa 850-1154, catalytic domain, GST-tag) (Homo sapiens, UniProt P23458); assay: JAK kinase assay (HTRF, phosphorylation of TK substrate-biotin), JAK1; settings: HTRF assay, ATP at Km (7 μM)
T3 construct: JAK1 (aa 850-1154) and TYK2 (aa 871-1187) are expressed with an N-terminally fused GST-tag; GST (N); purchased Carna Biosciences, Inc; host or cells: baculovirus expression system
T3 sequence (P23458 850-1154): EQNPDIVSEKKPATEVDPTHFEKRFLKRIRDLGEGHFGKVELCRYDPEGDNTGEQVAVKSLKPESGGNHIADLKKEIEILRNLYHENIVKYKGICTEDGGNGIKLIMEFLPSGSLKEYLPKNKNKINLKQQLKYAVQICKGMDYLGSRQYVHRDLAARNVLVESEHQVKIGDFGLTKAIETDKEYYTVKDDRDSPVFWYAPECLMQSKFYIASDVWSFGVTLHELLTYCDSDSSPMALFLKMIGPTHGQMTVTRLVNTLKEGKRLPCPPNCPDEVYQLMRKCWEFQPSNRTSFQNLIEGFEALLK
Method: as §1, §2, §3

[4] = target: T4, JAK3 (catalytic domain, His-tag) (Homo sapiens, UniProt P52333); assay: JAK kinase assay (HTRF, phosphorylation of TK substrate-biotin), JAK3; settings: HTRF assay, ATP at Km (2 μM)
T4 construct: All four purified enzymes contain only the catalytic domain; His (N); purchased Carna Biosciences, Inc; host or cells: baculovirus expression system
T4 sequence (P52333 822-1111 limits assumed): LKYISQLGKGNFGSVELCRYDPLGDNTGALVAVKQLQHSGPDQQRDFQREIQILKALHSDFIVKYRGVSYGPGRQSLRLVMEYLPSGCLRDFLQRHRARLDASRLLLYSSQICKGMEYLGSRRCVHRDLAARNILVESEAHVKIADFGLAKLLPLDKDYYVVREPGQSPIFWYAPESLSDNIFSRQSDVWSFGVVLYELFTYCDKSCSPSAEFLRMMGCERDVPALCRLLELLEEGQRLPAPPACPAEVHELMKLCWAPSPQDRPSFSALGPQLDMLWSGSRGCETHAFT
Method: as §1, §2, §3

[5] = read-out: JAK2 kinase inhibitory activity (EC50 indicator)
[6] = read-out: TYK2 kinase inhibitory activity (EC50 indicator)
[7] = read-out: JAK1 kinase inhibitory activity (EC50 indicator)
[8] = read-out: JAK3 kinase inhibitory activity (EC50 indicator)
[9] = read-out: JAK2 kinase inhibitory activity (EC50)
[10] = read-out: TYK2 kinase inhibitory activity (EC50)
[11] = read-out: JAK1 kinase inhibitory activity (EC50)
[12] = read-out: JAK3 kinase inhibitory activity (EC50)

SMILES | pEC50 [1, 5] | pEC50 [2, 6] | pEC50 [3, 7] | pEC50 [4, 8] | pEC50 [1, 9] | pEC50 [2, 10] | pEC50 [3, 11] | pEC50 [4, 12]
N#CCc1ccc(CC(=O)N2[C@@H]3CC[C@@H]2CN(c2ncnc4[nH]ccc24)C3)cc1 [Example 347, (4-{2-Oxo-2-[3-(7H-pyrrolo[2,3-d]pyrimidin-4-yl)-3,8-diaza-bicyclo[3.2.1]oct-8-yl]-ethyl}-phenyl)-acetonitrile] | 6.30 to 7.00 | < 6.30 | 6.30 to 7.00 | < 6.30 | – | – | – | –
S=C(NCc1ccccc1)N1CCN(c2ncnc3[nH]ccc23)CC12CC2 [Example 438, 7-(7H-Pyrrolo[2,3-d]pyrimidin-4-yl)-4,7-diaza-spiro[2.5]octane-4-carbothioic acid benzylamide] | – | – | – | – | > 7.00 | 6.30 to 7.00 | > 7.00 | 6.30 to 7.00
O=C(c1ccc2[nH]c(=O)ccc2c1)N1[C@@H]2CC[C@@H]1CN(c1ncnc3[nH]ccc13)C2 [Example 355, 6-[3-(7H-Pyrrolo[2,3-d]pyrimidin-4-yl)-3,8-diaza-bicyclo[3.2.1]octane-8-carbonyl]-1H-quinolin-2-one] | > 7.00 | < 6.30 | > 7.00 | 6.30 to 7.00 | – | – | – | –
O=C(c1ccc(S(=O)(=O)CCO)cc1)N1CCN(c2ncnc3[nH]ccc23)CC12CC2 [Example 406, [4-(2-Hydroxy-ethanesulfonyl)-phenyl]-[7-(7H-pyrrolo[2,3-d]pyrimidin-4-yl)-4,7-diaza-spiro[2.5]oct-4-yl]-methanone] | > 7.00 | 6.30 to 7.00 | > 7.00 | 6.30 to 7.00 | – | – | – | –
Cc1c[nH]c2ncnc(N3CCN(C(=O)Cc4ccc(F)cc4)C4(CC4)C3)c12 [Example 330, 2-(4-Fluoro-phenyl)-1-[7-(5-methyl-7H-pyrrolo[2,3-d]pyrimidin-4-yl)-4,7-diaza-spiro[2.5]oct-4-yl]-ethanone] | 6.30 to 7.00 | < 6.30 | 6.30 to 7.00 | 6.30 to 7.00 | – | – | – | –
CS(=O)(=O)c1ccc2[nH]c(C(=O)N3CCN(c4ncnc5[nH]ccc45)CC34CC4)cc2c1 [Example 365, (5-Methanesulfonyl-1H-indol-2-yl)-[7-(7H-pyrrolo[2,3-d]pyrimidin-4-yl)-4,7-diaza-spiro[2.5]oct-4-yl]-methanone] | > 7.00 | > 7.00 | > 7.00 | > 7.00 | – | – | – | –
CCCCNC(=O)N1CCN(c2ncnc3[nH]ccc23)CC12CC2 [Example 444, 7-(7H-Pyrrolo[2,3-d]pyrimidin-4-yl)-4,7-diaza-spiro[2.5]octane-4-carboxylic acid butylamide] | – | – | – | – | > 7.00 | < 6.30 | > 7.00 | 6.30 to 7.00
O=C(c1cccc(OC(F)(F)F)c1)N1CCN(c2ccnc3[nH]ccc23)CC12CC2 [Example 229, [7-(1H-Pyrrolo[2,3-b]pyridin-4-yl)-4,7-diaza-spiro[2.5]oct-4-yl]-(3-trifluoromethoxy-phenyl)-methanone] | 6.30 to 7.00 | < 6.30 | 6.30 to 7.00 | < 6.30 | – | – | – | –
N#CCCCC(=O)N1[C@@H]2CC[C@@H]1CN(c1ncnc3[nH]ccc13)C2 [Example 352, 5-Oxo-5-[3-(7H-pyrrolo[2,3-d]pyrimidin-4-yl)-3,8-diaza-bicyclo[3.2.1]oct-8-yl]-pentanenitrile] | > 7.00 | < 6.30 | > 7.00 | 6.30 to 7.00 | – | – | – | –
COC(=O)c1cc2c(N3CCN(C(=O)Cc4ccc(C(F)(F)F)cc4)C4(CC4)C3)ncnc2[nH]1 [Example 338, 4-{4-[2-(4-Trifluoromethyl-phenyl)-acetyl]-4,7-diaza-spiro[2.5]oct-7-yl}-7H-pyrrolo[2,3-d]pyrimidine-6-carboxylic acid methyl ester] | < 6.30 | < 6.30 | < 6.30 | < 6.30 | – | – | – | –
